# Data taken from BindingDB's records for PubMed 40258217 (The Hebrew University of Jerusalem).
# Molecular target: Cannabinoid receptor 1 (Mus musculus, UniProt P47746)
# Assay: Displacement of [3H]CP-55940 from CB1R in C57Bl/6Jhsd mouse cortex membrane incubated for 1 hr by liquid scintillation counter analysis
# Sequence of Cannabinoid receptor 1 (P47746 whole entry): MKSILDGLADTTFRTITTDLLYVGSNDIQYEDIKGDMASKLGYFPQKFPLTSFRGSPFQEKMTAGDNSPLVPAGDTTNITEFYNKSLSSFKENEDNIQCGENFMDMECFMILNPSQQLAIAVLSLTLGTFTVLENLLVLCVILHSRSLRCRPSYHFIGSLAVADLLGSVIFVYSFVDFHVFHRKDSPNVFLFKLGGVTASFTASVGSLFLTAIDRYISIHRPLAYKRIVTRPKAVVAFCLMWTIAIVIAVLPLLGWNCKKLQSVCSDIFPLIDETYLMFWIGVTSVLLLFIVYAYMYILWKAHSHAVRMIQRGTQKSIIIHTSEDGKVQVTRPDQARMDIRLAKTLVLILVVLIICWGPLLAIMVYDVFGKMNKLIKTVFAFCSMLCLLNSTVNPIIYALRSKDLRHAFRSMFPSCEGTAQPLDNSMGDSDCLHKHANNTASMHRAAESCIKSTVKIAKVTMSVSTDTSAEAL
structure (smiles),measurement,value
CCOC(=O)N1CCC(N[C@H]2CCCOc3c2nn(-c2ccccc2Cl)c3-c2ccc(Cl)cc2)CC1,Ki,8.9 nM
